Test results as given in patent publication US9850283B2, “Macrocyclic inhibitors of the PD-1/PD-L1 and CD80(B7-1)/PD-L1 protein/protein interactions” (BRISTOL-MYERS SQUIBB COMPANY, priority 2013, dated 2017).
Read-outs that look alike come from different tables or passages of the source. Positions of bridges follow the written chain, without caps; N, C: chain ends. Non-standard residues stand in square brackets, D forms with d. Residues, ends and D or L forms follow the SMILES beside them. ξ: configuration not given here. *: point of attachment. Phe(3,4,5-F3) = N[C@@H](Cc1cc(F)c(F)c(F)c1)C(=O)O; Phe(4-CH2NH2) = NCc1ccc(C[C@H](N)C(=O)O)cc1; Bta = N[C@@H](Cc1csc2ccccc12)C(=O)O; Hyp = O=C(O)[C@@H]1C[C@@H](O)CN1; NMeF = CN[C@@H](Cc1ccccc1)C(=O)O; hPhe = N[C@@H](CCc1ccccc1)C(=O)O; NMeNle = CCCC[C@H](NC)C(=O)O; NMeM = CN[C@@H](CCSC)C(=O)O; dPip = O=C(O)[C@H]1CCCCN1; NMeA = CN[C@@H](C)C(=O)O; Orn = NCCC[C@H](N)C(=O)O; Dab = NCC[C@H](N)C(=O)O; Alloc = C=CCOC(=O)*; ξC = NC(CS)C(=O)O; Sar = CNCC(=O)O

Columns and labels:
Human PD-L1/PD-1 = biological target: T1, Human PD-L1/PD-1 (Homo sapiens, UniProt Q9NZQ7); assay: HTRF PD-1-Ig/PD-L1-His binding assay (human PD-L1)
T1 construct: made in house; host or cells: HEK293T
In short: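 Readout: time-resolved FRET between Eu cryptate-labeled anti-Ig (1 nM final) and APC-labeled anti-His (20 nM final) antibodies. These detect interaction of Fc-fused PD-1 with His-tagged human PD-L1 in dPBS containing 0.1% BSA and 0.05% Tween-20.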

[1] = biological target: T2, LK35.2-hPD-L1 cells / PE-labeled PD-1-Ig (Homo sapiens, UniProt Q9NZQ7); assay: LK35.2-hPD-L1 cell binding high-content screening assay; format: cell-based
T2 construct: expressed in transfected cells; host or cells: LK35.2 mouse B cell line
In short: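 Fluorescent PD-1-Ig binding to PD-L1-expressing LK35.2 cells, imaged after washing. Conditions: 1 nM PE-PD-1-Ig, 37 °C, 1 h, RPMI with 10% fetal calf serum.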

[2] = cluster symbol, read-out: HTRF IC50 cluster
[3] = cell binding assay, cell line not given, cluster symbol, read-out: CBA IC50 cluster
[4] = cluster symbol, cell line of CBA not given (LK35.2-hPD-L1 or 293T-hPD-L1), read-out: CBA IC50 cluster

T2 sequence (Q9NZQ7 19-290): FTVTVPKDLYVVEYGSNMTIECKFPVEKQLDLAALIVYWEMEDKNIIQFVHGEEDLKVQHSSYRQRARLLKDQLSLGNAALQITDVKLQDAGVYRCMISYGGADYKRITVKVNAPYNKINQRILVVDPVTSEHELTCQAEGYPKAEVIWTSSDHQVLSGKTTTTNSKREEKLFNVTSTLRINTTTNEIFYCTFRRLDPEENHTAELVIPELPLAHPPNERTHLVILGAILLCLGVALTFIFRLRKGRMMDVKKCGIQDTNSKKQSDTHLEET
T1 sequence (Q9NZQ7 with tags, fused parts or gaps): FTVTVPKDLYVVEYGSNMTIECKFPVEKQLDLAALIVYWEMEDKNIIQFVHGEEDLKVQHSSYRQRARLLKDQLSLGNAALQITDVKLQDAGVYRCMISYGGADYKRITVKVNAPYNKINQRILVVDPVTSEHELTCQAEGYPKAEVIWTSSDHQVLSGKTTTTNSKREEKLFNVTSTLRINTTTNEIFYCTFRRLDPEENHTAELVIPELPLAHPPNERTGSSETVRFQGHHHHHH

Row | IC50 (Human PD-L1/PD-1; [2]) | IC50 [1, 3] | IC50 [1, 4] | IC50 (Human PD-L1/PD-1; value given instead of cluster, read-out: HTRF IC50 value) | IC50 ([1]; cell binding assay, cell line not given, value given instead of cluster, read-out: CBA IC50 value) | Compound
1 | 6.76 to 30.3 nM | 4.78 to 72.9 nM | – | – | – | CCCC[C@H]1C(=O)N(C)[C@@H](CCCC)C(=O)N[C@@H](CCCNC(=N)N)C(=O)NC(C(=O)N[C@@H](CO)C(N)=O)CSCC(=O)N[C@@H](Cc2ccc(O)cc2)C(=O)N(C)[C@@H](C)C(=O)N[C@@H](CC(N)=O)C(=O)N2CCC[C@H]2C(=O)N[C@@H](Cc2cnc[nH]2)C(=O)N[C@@H](CO)C(=O)N2CCC[C@H]2C(=O)N[C@@H](Cc2c[nH]c3ccccc23)C(=O)N[C@@H](CO)C(=O)N[C@@H](Cc2c[nH]c3ccccc23)C(=O)N1C (some centres unmarked) [Example 9077] ({CH2CO}-Y[NMeA]NPHSPWSW[NMeNle][NMeNle]R[ξC]S-NH2; thioether N-14)
2 | 6.76 to 30.3 nM | – | 0.158 to 4.71 nM | – | – | CCCC[C@H]1C(=O)N2CCC[C@@H]2C(=O)N[C@@H](CO)C(=O)N[C@@H](C(C)C)C(=O)N(C)[C@@H](Cc2ccccc2)C(=O)N[C@@H](Cc2ccc(CN)cc2)C(=O)N2CCC[C@@H]2C(=O)N[C@@H](Cc2c[nH]c3ccccc23)C(=O)N[C@@H](Cc2ccc(O)cc2)C(=O)N[C@@H](CCCCN)C(=O)N[C@H](C(=O)NCC(N)=O)CSCC(=O)N[C@@H](Cc2cc(F)c(F)c(F)c2)C(=O)N(C)[C@@H](Cc2ccccc2)C(=O)N1C [Example 3199] ({CH2CO}-[Phe(3,4,5-F3)][NMeF][NMeNle][dP]SV[NMeF][Phe(4-CH2NH2)][dP]WYKCG-NH2; thioether N-13)
3 | > 30.5 nM | – | > 74.3 nM | – | – | C=CCOC(=O)NCCC[C@@H]1NC(=O)[C@H](CCCC)N(C)C(=O)[C@H](CCCC)N(C)C(=O)[C@H](Cc2csc3ccccc23)NC(=O)[C@H](CCNC(=O)OCC=C)NC(=O)[C@H](Cc2c[nH]c3ccccc23)NC(=O)[C@@H]2C[C@@H](O)CN2C(=O)[C@H](CCC(=O)O)NC(=O)[C@H](Cc2cnc[nH]2)NC(=O)[C@@H]2CCCN2C(=O)[C@H](CCCN)NC(=O)[C@H](C)N(C)C(=O)[C@H](Cc2ccc(O)cc2)NC(=O)CSC[C@@H](C(=O)NCC(N)=O)NC1=O [Example 1230] ({CH2CO}-Y[NMeA][Orn]PHE[Hyp]W[Dab](Alloc)[Bta][NMeNle][NMeNle][Orn](Alloc)CG-NH2; thioether N-14)
4 | – | – | – | 18.1 nM | 22.7 nM | CCCC[C@H]1C(=O)N(C)[C@@H](CCCC)C(=O)N[C@@H](CCCNC(=N)N)C(=O)N[C@H](C(=O)NCC(N)=O)CSCC(=O)N[C@@H](Cc2ccccc2)C(=O)N(C)[C@@H](C)C(=O)N[C@@H](CC(N)=O)C(=O)N2CCC[C@H]2C(=O)N[C@@H](Cc2c[nH]cn2)C(=O)N[C@@H](CC(C)C)C(=O)N(C)CC(=O)N[C@@H](Cc2c[nH]c3ccccc23)C(=O)N[C@@H]([C@@H](C)O)C(=O)N[C@@H](Cc2c[nH]c3ccccc23)C(=O)N1C [Example 5008] ({CH2CO}-F[NMeA]NPHL[Sar]WTW[NMeNle][NMeNle]RCG-NH2; thioether N-14)
5 | 0.385 to 6.74 nM | 4.78 to 72.9 nM | – | – | – | CCCC[C@H]1C(=O)N(C)[C@@H](CCSC)C(=O)N[C@@H](CCCNC(=N)N)C(=O)NC(C(=O)NCC(N)=O)CSCC(=O)N[C@@H](Cc2ccc(O)cc2)C(=O)N(C)[C@@H](C)C(=O)N[C@@H](CC(N)=O)C(=O)N2CCC[C@H]2C(=O)N[C@@H](Cc2cnc[nH]2)C(=O)N[C@@H](CO)C(=O)N2CCC[C@H]2C(=O)N[C@@H](Cc2c[nH]c3ccccc23)C(=O)N[C@@H](CO)C(=O)N[C@@H](Cc2c[nH]c3ccccc23)C(=O)N1C (some centres unmarked) [Example 9105] ({CH2CO}-Y[NMeA]NPHSPWSW[NMeNle][NMeM]R[ξC]G-NH2; thioether N-14)
6 | 0.385 to 6.74 nM | 0.158 to 4.71 nM | – | – | – | CCCC[C@H]1C(=O)N(C)CC(=O)N[C@@H](CC(=O)O)C(=O)N[C@@H](C(C)C)C(=O)N(C)[C@@H](Cc2ccccc2)C(=O)N[C@@H](Cc2ccc(O)cc2)C(=O)N2CCCC[C@@H]2C(=O)N[C@@H](Cc2c[nH]c3ccccc23)C(=O)N[C@@H](Cc2ccc(O)cc2)C(=O)N[C@@H](CC(C)C)C(=O)N[C@H](C(=O)NCC(N)=O)CSCC(=O)N[C@@H](Cc2ccccc2)C(=O)N(C)[C@@H](Cc2ccccc2)C(=O)N1C [Example 3572] ({CH2CO}-F[NMeF][NMeNle][Sar]DV[NMeF]Y[dPip]WYLCG-NH2; thioether N-13)
7 | > 30.5 nM | – | > 74.3 nM | – | – | CCCC[C@H]1C(=O)N[C@@H](CCCNC(=N)N)C(=O)N[C@H](C(=O)NCC(N)=O)CSCC(=O)N[C@@H](Cc2ccccc2)C(=O)N(C)[C@@H](C)C(=O)N[C@@H](CC(N)=O)C(=O)N2CCC[C@H]2C(=O)N[C@@H](Cc2cnc[nH]2)C(=O)N[C@@H](CC(C)C)C(=O)N(C)CC(=O)N[C@@H](Cc2c[nH]c3ccccc23)C(=O)N[C@@H](CO)C(=O)N[C@@H](Cc2c[nH]c3ccccc23)C(=O)N[C@@H](CCc2ccccc2)C(=O)N1C [Example 1006] ({CH2CO}-F[NMeA]NPHL[Sar]WSW[hPhe][NMeNle]RCG-NH2; thioether N-14)
